Converted amounts (≈) assume the structure as drawn.
What was measured:
[1] = test system: Haemophilus influenzae; assay: In vitro antibacterial activity against Haemophilia influenzae strains 30063 and ATCC 31517 (HI); range is 4-8; assay type: functional
[2] = test system: Moraxella catarrhalis; assay: In vitro antibacterial activity against Moraxella catarrhalis strains 30607 and 30603 (MC).; assay type: functional
[3] = test system: Mus musculus; assay: In vivo Efficacy of compound after peroral administration in mouse; assay type: functional; settings: po
[4] = test system: Staphylococcus epidermidis; assay: In vitro antibacterial activity against Staphylococcus epidermidis strains UC12084, 30031, and CDC-CNS90 (SE); range is 1-2; assay type: functional
[5] = test system: Staphylococcus aureus; assay: In vitro antibacterial activity against Staphylococcus aureus strains UC12673, UC9213, ATCC 29213, and UC9271 (SA); range is 2-4; assay type: functional
[6] = test system: Staphylococcus aureus; assay: In vitro antibacterial activity against linezolid-resistant Staphylococcus aureus ATCC 29213 (LRSA).; assay type: functional
[7] = test system: Enterococcus faecium; assay: In vitro antibacterial activity against vancomycin-resistant Enterococcus faecium UC12712 (VRE).
[8] = test system: Streptococcus pneumoniae; assay: In vitro antibacterial activity against Streptococcus pneumoniae strains ATCC 6305 and 31573 (SPN); range is 0.5-1
[9] = test system: Haemophilus influenzae; assay: In vitro antibacterial activity against Haemophilia influenzae strains ATCC 30063 and ATCC 31517; assay type: functional
[10] = test system: Moraxella catarrhalis; assay: In vitro antibacterial activity against Moraxella catarrhalis strains 30607 and 30603 (MC); range is 8-16; assay type: functional
[11] = test system: Staphylococcus aureus; assay: In vitro antibacterial activity against Staphylococcus aureus strains UC12673, UC9213, ATCC 29213, and UC9271 (SA); range is 16-32; assay type: functional
[12] = test system: Staphylococcus epidermidis; assay: In vitro antibacterial activity against Staphylococcus epidermidis strains UC12084, 30031, and CDC-CNS90 (SE); assay type: functional
[13] = test system: Staphylococcus aureus; assay: In vitro antibacterial activity against Staphylococcus aureus strains UC12673, UC9213, ATCC 29213, and UC9271 (SA); range is 4-8; assay type: functional
[14] = test system: Streptococcus pneumoniae; assay: In vitro antibacterial activity against Streptococcus pneumoniae strains ATCC6305 and 31573 (SPN).
[15] = test system: Haemophilus influenzae; assay: In vitro antibacterial activity against Haemophilia influenzae strains 30063 and ATCC 31517 (HI); range is 32-64; assay type: functional
[16] = test system: Staphylococcus epidermidis; assay: In vitro antibacterial activity against Staphylococcus epidermidis strains UC12084, 30031, and CDC-CNS90 (SE); range is 4-8; assay type: functional
[17] = test system: Staphylococcus aureus; assay: In vitro antibacterial activity against Staphylococcus aureus strains UC12673, UC9213, ATCC 29213, and UC9271 (SA); range is 8-32; assay type: functional
[18] = test system: Streptococcus pneumoniae; assay: In vitro antibacterial activity against Streptococcus pneumoniae strains ATCC 6305 and 31573 (SPN); range is 4-8
[19] = test system: Staphylococcus aureus; assay: In vitro antibacterial activity against Staphylococcus aureus strains UC12673, UC9213, ATCC 29213, and UC9271 (SA); assay type: functional
[20] = test system: Staphylococcus epidermidis; assay: In vitro antibacterial activity against Staphylococcus epidermidis strains UC12084, 30031, and CDC-CNS90 (SE); range is 2-4; assay type: functional
[21] = test system: Haemophilus influenzae; assay: In vitro antibacterial activity against Haemophilia influenzae strains 30063 and ATCC 31517 (HI); range is 8-32; assay type: functional
[22] = test system: Streptococcus pneumoniae; assay: In vitro antibacterial activity against Streptococcus pneumoniae strains ATCC 6305 and 31573 (SPN); range is 2-4
[23] = test system: Haemophilus influenzae; assay: In vitro antibacterial activity against Haemophilia influenzae strains 30063 and ATCC 31517 (HI); range is 16-32; assay type: functional
[24] = test system: Staphylococcus aureus; assay: In vitro antibacterial activity against Staphylococcus aureus strains UC12673, UC9213, ATCC 29213, and UC9271 (SA); range is 8-16; assay type: functional
[25] = test system: Staphylococcus epidermidis; assay: In vitro antibacterial activity against Staphylococcus epidermidis strains UC12084, 30031, and CDC-CNS90 (SE); range is 0.5-1; assay type: functional
[26] = test system: Haemophilus influenzae; assay: In vitro antibacterial activity against Haemophilia influenzae strains 30063 and ATCC 31517 (HI); range is 8-16; assay type: functional
[27] = test system: Mus musculus; assay: In vivo Efficacy of compound after peroral administration to protect the Staphylococcus aureus mouse septicemia model; assay type: functional; settings: po

Row | SMILES | MIC [2] [µg/mL] | MIC [4] [µg/mL] | MIC [6] [µg/mL] | MIC [7] [µg/mL] | MIC [9] [µg/mL] | MIC [12] [µg/mL] | also measured
1 | O=C(CF)NC[C@H]1CN(c2ccc(C3CC[S+]([O-])CC3)c(F)c2)C(=O)O1 (stereo partly drawn) | 8 (≈ 20.7 µM) | 1 (≈ 2.59 µM) | 32 (≈ 82.8 µM) | 4 (≈ 10.4 µM) | – | – | MIC [1]: 4 µg/mL (≈ 10.4 µM); ED50 [3]: 3.75 mg/kg; MIC [5]: 2 µg/mL (≈ 5.18 µM); MIC [8]: 0.5 µg/mL (≈ 1.29 µM)
2 | O=C(NC[C@H]1CN(c2ccc(N3CC[S+]([O-])CC3)c(F)c2)C(=O)O1)C1CC1 | – | – | 64 (≈ 162 µM) | 4 (≈ 10.1 µM) | 32 (≈ 80.9 µM) | 4 (≈ 10.1 µM) | MIC [10]: 8 µg/mL (≈ 20.2 µM); MIC [11]: 16 µg/mL (≈ 40.5 µM)
3 | CC(=O)NC[C@H]1CN(c2ccc(N3CC[S+]([O-])CC3)c(F)c2)C(=O)O1 | 4 (≈ 10.8 µM) | 1 (≈ 2.71 µM) | > 64 | 2 (≈ 5.41 µM) | – | – | MIC [1]: > 4 µg/mL; MIC [13]: 4 µg/mL (≈ 10.8 µM); MIC [14]: 1 µg/mL (≈ 2.71 µM)
4 | CC(=O)Nc1ccc(/C=C/C(=O)NC[C@H]2CN(c3ccc(N4CC[S+]([O-])CC4)c(F)c3)C(=O)O2)cc1 | 16 (≈ 31.1 µM) | 1 (≈ 1.94 µM) | > 64 | 8 (≈ 15.5 µM) | > 64 | – | MIC [13]: 4 µg/mL (≈ 7.77 µM)
5 | O=C(NC[C@H]1CN(c2ccc(N3CCS(=O)(=O)CC3)c(F)c2)C(=O)O1)c1csnn1 | 32 (≈ 70.3 µM) | – | 32 (≈ 70.3 µM) | 16 (≈ 35.1 µM) | – | – | MIC [15]: 32 µg/mL (≈ 70.3 µM); MIC [16]: 4 µg/mL (≈ 8.78 µM); MIC [17]: 8 µg/mL (≈ 17.6 µM); MIC [18]: 4 µg/mL (≈ 8.78 µM)
6 | CC(=O)NC[C@H]1CN(c2ccc(N3CCS(=O)(=O)CC3)c(F)c2)C(=O)O1 | 4 (≈ 10.4 µM) | – | 64 (≈ 166 µM) | 2 (≈ 5.19 µM) | – | 1 (≈ 2.59 µM) | MIC [1]: 4 µg/mL (≈ 10.4 µM); MIC [19]: 4 µg/mL (≈ 10.4 µM); MIC [8]: 0.5 µg/mL (≈ 1.3 µM)
7 | O=C1O[C@@H](CNC(=O)C(F)(F)F)CN1c1ccc(C2CCS(=O)(=O)CC2)c(F)c1 | 8 (≈ 18.2 µM) | – | 64 (≈ 146 µM) | 8 (≈ 18.2 µM) | – | – | MIC [20]: 2 µg/mL (≈ 4.56 µM); MIC [21]: > 8 µg/mL; MIC [17]: 8 µg/mL (≈ 18.2 µM)
8 | O=C(CO)NC[C@H]1CN(c2ccc(C3CC[S+]([O-])CC3)c(F)c2)C(=O)O1 (stereo partly drawn) | 8 (≈ 20.8 µM) | – | 64 (≈ 166 µM) | 8 (≈ 20.8 µM) | 8 (≈ 20.8 µM) | 4 (≈ 10.4 µM) | MIC [11]: 16 µg/mL (≈ 41.6 µM); MIC [22]: 2 µg/mL (≈ 5.2 µM)
9 | CSCC(=O)NC[C@H]1CN(c2ccc(C3CCS(=O)(=O)CC3)c(F)c2)C(=O)O1 | 8 (≈ 18.6 µM) | – | 64 (≈ 149 µM) | 4 (≈ 9.29 µM) | – | 2 (≈ 4.65 µM) | MIC [13]: 4 µg/mL (≈ 9.29 µM); MIC [21]: 8 µg/mL (≈ 18.6 µM)
10 | O=C(CC(F)(F)F)NC[C@H]1CN(c2ccc(N3CCS(=O)(=O)CC3)c(F)c2)C(=O)O1 | 16 (≈ 35.3 µM) | – | > 64 | 4 (≈ 8.82 µM) | – | 4 (≈ 8.82 µM) | MIC [23]: 16 µg/mL (≈ 35.3 µM); MIC [24]: 8 µg/mL (≈ 17.6 µM)
11 | O=C1O[C@@H](CNC(=O)C(F)(F)F)CN1c1ccc(C2CC[S+]([O-])CC2)c(F)c1 (stereo partly drawn) | 8 (≈ 18.9 µM) | – | 32 (≈ 75.8 µM) | 4 (≈ 9.47 µM) | – | – | MIC [19]: 8 µg/mL (≈ 18.9 µM); MIC [20]: 2 µg/mL (≈ 4.73 µM); MIC [21]: 8 µg/mL (≈ 18.9 µM)
12 | CC(=O)NC[C@H]1CN(c2ccc(C3CC[S+]([O-])CC3)c(F)c2)C(=O)O1 (stereo partly drawn) | – | – | 64 (≈ 174 µM) | 2 (≈ 5.43 µM) | 8 (≈ 21.7 µM) | – | MIC [10]: > 8 µg/mL; MIC [19]: 4 µg/mL (≈ 10.9 µM); MIC [25]: 0.5 µg/mL (≈ 1.36 µM); MIC [14]: 0.5 µg/mL (≈ 1.36 µM)
13 | CC(=O)NC[C@H]1CN(c2ccc(N3CCOCC3)c(F)c2)C(=O)O1 [LINEZOLID] | – | 1 (≈ 2.96 µM) | 64 (≈ 190 µM) | – | – | – | MIC [26]: > 8 µg/mL; ED50 [27]: 5 mg/kg

Source: ChEMBL document CHEMBL1136459, “New antibacterial tetrahydro-4(2H)-thiopyran and thiomorpholine S-oxide and S,S-dioxide phenyloxazolidinones” (Bioorg Med Chem Lett, 2003)
